Source: PMC9820345, “Metal Complexes of a 5-Nitro-8-Hydroxyquinoline-Proline Hybrid with Enhanced Water Solubility Targeting Multidrug Resistant Cancer Cells” (International Journal of Molecular Sciences, 2022)

Tests used:
[1] = Formation constants of Fe(III) complexes by UV-vis spectrophotometric titrations; assay type: physicochemical; settings: I = 0.1 M KCl, 25.0 °C
Method: UV-vis titrations were performed to determine the formation (overall stability) constants (β) for the complexes of HQNO2-L-Pro formed with Fe(III) and Fe(II) ions (Figures S10 and S11). In the latter case, titrations were performed in a laboratory glove box. The calculations were complicated by the overlapping feature of the ligand bands and the charge transfer bands of the complexes. Based on the absorption spectra Figures S10a and S11a), formation of mono, bis, and tris complexes were found in both chemical systems; obtained constants are collected in Table 2. […] Based on the concentration distribution diagrams (see Figure S10b for Fe(III) and Figure S11b for Fe(II)), it can be concluded that the tris complexes are the dominant species at pH 7.4 in the case of Fe(III), while with Fe(II) both tris and bis-ligand species are formed under the conditions of the titrations.
An Agilent Cary 8454 diode array spectrophotometer (Santa Clara, CA, USA) was used to obtain UV-vis spectra in the wavelength range 200–1000 nm, while spectra were recorded for the Fe(II)-containing samples using an Avantes (Avantes B.V., Apeldoorn, The Nederlands) AvaSpec-ULS2048CL-EVO spectrometer with an AvaLight-DHc light source and FDP-7UVIR200-2-VAR transmission dip probe. The titrations for the Fe(II)-containing samples were performed in a laboratory glove box (GP(Campus), Jacomex) (O2 content ≤ 1 ppm). The path length (ℓ) was 1 cm in most cases (the actual ℓ is always indicated in the legends of the figures). The concentrations of the ligands and complexes were between 40 and 200 µM, and 0.2 M KNO3 for the organometallic complexes or 0.1 M KCl for the Fe(II/III), Cu(II), and Zn(II) complexes were used to adjust the constant ionic strength. For HSA containing samples, complex concentrations were 50 µM, and 0.5, and 2 equiv. biomolecules were added for kinetic studies, respectively. For HSA model containing samples, complex concentrations were 50 µM, and the model concentrations were 0–150 µM and 0–500 µM, respectively, and the pH was 7.4 (PBS’). Spectra were always background and baseline corrected. […]

[2] = Cyclic voltammetry of the iron complexes; assay type: physicochemical; settings: for E1/2 vs. NHE: iron(III/II)-ligand (1:3), pH 7.40
OATP1B1 = target: T1, OATP1B1 (Homo sapiens, UniProt Q9Y6L6); experiment: OATP uptake assay, OATP1B1; assay type: cell-based; settings: human, 10 μM
T1 construct: expressed in transfected cells; host or cells: A431 epidermoid carcinoma cells
T1 sequence (Q9Y6L6 1-691): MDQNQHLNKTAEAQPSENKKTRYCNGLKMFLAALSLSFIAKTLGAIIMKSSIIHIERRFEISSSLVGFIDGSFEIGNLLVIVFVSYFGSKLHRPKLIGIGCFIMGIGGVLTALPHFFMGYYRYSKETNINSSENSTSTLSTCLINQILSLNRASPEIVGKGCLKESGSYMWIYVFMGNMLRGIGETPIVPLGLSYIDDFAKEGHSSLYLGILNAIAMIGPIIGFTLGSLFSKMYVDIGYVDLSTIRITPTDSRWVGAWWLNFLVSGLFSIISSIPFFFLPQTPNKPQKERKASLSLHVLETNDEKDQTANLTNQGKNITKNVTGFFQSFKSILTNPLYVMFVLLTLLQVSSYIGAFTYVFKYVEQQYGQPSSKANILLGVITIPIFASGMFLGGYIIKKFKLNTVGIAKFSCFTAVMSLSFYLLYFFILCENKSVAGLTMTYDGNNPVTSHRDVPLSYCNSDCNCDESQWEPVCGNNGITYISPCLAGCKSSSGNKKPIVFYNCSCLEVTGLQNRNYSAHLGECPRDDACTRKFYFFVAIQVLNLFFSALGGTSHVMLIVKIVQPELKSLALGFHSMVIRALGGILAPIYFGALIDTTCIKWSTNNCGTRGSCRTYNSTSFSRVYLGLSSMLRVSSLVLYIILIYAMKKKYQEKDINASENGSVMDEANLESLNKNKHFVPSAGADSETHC
Method: Cell lines: A431 cells overexpressing OATP1B1 or OATP2B1, and their mock transfected controls were generated and characterized previously. The cell lines were cultured in DMEM (Gibco, Thermofisher Scientific, Waltham, MA, USA), supplemented with 10% fetal bovine serum, 2 mM L-glutamine, 100 μg/mL streptomycin, and 100 units/mL penicillin at 37 °C and 5% CO2.
OATP uptake assay: Prior to the experiment, A431 cells (8 × 10^4/well) were seeded on 96-well plates in 200 μL cell culture medium. After 16–24 h, the cells were washed with 200 μL PBS, three times and pre-incubated with 20–200 μM HQNO2-L-Pro, or buffer without HQNO2-L-Pro for 5 min at 37 °C in 50 μL HBSS (Hank’s Balanced Salt Solution, pH 7.4; OATP1B1) or uptake buffer (pH 5.5; OATP2B1 [63]). The reaction was started by the addition of disulfopyrene (6,8-dihydroxy-1,3-pyrenedisulfonic acid disodium salt, Sigma, Darmstadt, Germany) at a final concentration of 10 μM (OATP1B1) or pyranine (8-hydroxypyrene-1,3-pyrenetrisulfonic acid trisodium salt, Sigma, Darmstadt, Germany) at a final concentration of 20 μM (OATP2B1), and the cells were further incubated at 37 °C for 10 min (OATP1B1) or 15 min (OATP2B1). The reaction was stopped by removing the supernatant after which the cells were washed three times with ice-cold PBS. Fluorescence (in 200 μL PBS) was determined using an Enspire plate reader (PerkinElmer, Waltham, MA, USA) with excitation/emission wavelengths of 460/510 nm. OATP-dependent transport was calculated by subtracting fluorescence measured in mock transfected cells. Transport activity was calculated based on the fluorescence signal in the absence (100%) of HQNO2-L-Pro. Experiments were repeated in at least three biological replicates.

logβ [M(HL)2] [1]: 38.76 ± 0.03
logβ [M(HL)3] [1]: 55.66 ± 0.03
logβ [M(HL)] [1]: 19.75 ± 0.03
E1/2 vs. NHE ([2]; scan rate 0.005 V/s): +0.207 V
E1/2 vs. NHE ([2]; scan rate 0.010 V/s): +0.216 V
E1/2 vs. NHE ([2]; scan rate 0.015 V/s): +0.218 V
E1/2 vs. NHE ([2]; scan rate 0.020 V/s): +0.217 V
E1/2 vs. NHE ([2]; scan rate 0.025 V/s): +0.214 V
formal potential E'1/2 of the Fe(III)/Fe(II) redox pair of the iron complexes ([2]; pH 7.4, 1:3 metal-to-ligand ratio, ciron = 0.5 mM): +215 ± 5 mV vs. NHE
activity at 10 min, 100 µM (OATP1B1; A431 cells overexpressing OATP1B1, pH 7.4, probe disulfopyrene, 100 μM, absence of compound = 100%, n = 3, ± SD, read-out: transport activity % OATP1B1): 88.1 ± 5.9%
activity at 10 min, 10 µM (OATP1B1; A431 cells overexpressing OATP1B1, pH 7.4, probe disulfopyrene, absence of compound = 100%, n = 3, ± SD, read-out: transport activity % OATP1B1): 106 ± 4.1%
inhibition at 10 min, 100 µM (OATP1B1; probe disulfopyrene, at 100 μM, A431 cells overexpressing OATP1B1, pH 7.4, read-out: inhibition of OATP1B1 function): < 20%
Structure (SMILES): O=C(O)[C@@H]1CCCN1Cc1cc([N+](=O)[O-])c2cccnc2c1O [HQNO2-L-Pro, (2S)-1-((8-hydroxy-5-nitroquinolin-7-yl)methyl)pyrrolidin-1-ium-2-carboxylate]
